Assay results: patent US20100048594A1, “USE OF CYTOHESIN INHIBITORS FOR CHEMICALLY INDUCING LONGEVITY” (RHEINISCHE FRIEDRICH-WILHELMS UNIVERSITAT, priority 2006, published 2010)

What was measured:
[1] = tested on: Drosophila eukaryotic initiation factor 4E binding protein (d4EBP, Thor); test: Transcription rate of insulin target gene d4EBP in insulin-treated Drosophila S2 cells (real-time PCR); type: cell-based; conditions: 100 μM compound, 10 μg/ml human insulin, insulin alone less than 35%
Description: Drosophila Schneider 2 (S2) cells were cultivated in Schneider's Medium (PAN company) with 10% heat-inactivated fetal calf serum (FCS). 2×10^6 cells were drawn into 35 mm vessels at 25° C. to 80% confluence, washed one time in phosphate buffered saline solution (1×PBS, Gibco), and transferred for twelve hours to Schneider's Medium, without FCS. The cells were then preincubated for two hours with 0.5% DMSO containing Schneider's Medium, without FCS, with or without the compound according to formula (9) or formula (25), with the final concentrations of the compounds according to formulas (9) and (25) being 1 μM, 10 μM and 100 μM. This was followed by a four-hour stimulation with 10 μg/ml human insulin (Sigma).
After washing the cells two times with PBS, total RNA was then isolated from the cells using the NucleoSpin RNA II Kit (Macherey & Nagel), according to the manufacturer's instructions. The first strain cDNA synthesis was performed with every 500 ng RNA, using the QuantiTect Reverse Transcription Kit (Qiagen), according to the manufacturer's instructions. […]
The activity of the insulin signaling pathway was determined from the transcription rate of the insulin target gene Drosophila eukaryotic initiation factor 4E binding protein (d4EBP, Thor). […]

[2] = tested on: Drosophila melanogaster flies; test: Lifespan of adult Drosophila melanogaster flies fed with compound (Kaplan-Meier analysis); type: in vivo; conditions: 10 μM compound in food; for Average Lifespan: ±margin of error
Description: The experiments were conducted on isogenic flies (Drosophila melanogaster) of the genotype white^1118, also called white^− or w^−, and mutants (w^1118; step^k08110/step^SH0323) (strain # 10770 from the public Bloomington Stock Center, genotype: step^k08110/CyO, URL http://flybase.bio.indiana.edu/reports/FBstOO10770.html; strain # FBst0103734 from the public Szeged Stock Center, genotype: step^SH0323/CyO, URL http://flybase.bio.indiana.edu/reports/FBst0103734.html), in which the Drosophila cytohesin steppke is mutated and therefore defective.
By crossing the two steppke alleles k08110 and SH0323 eight times with whites flies, an isogenic genetic background is produced, which permits a comparison of the lifespans between the genotypes of the type white^1118 and the mutants (w^1118; step^k08110/step^SH0323). The average lifespan of the wild type was approximately 25 days, while that of the mutants (w^1118; step^k08110/step^SH0323) was approximately 30 days.
To produce the special food, 32.5 g autolysed yeast (Fluka (Catalog No. 73145)) and 10 g agar (Difco (Catalog No. 281230)) were mixed with 300 ml water (demineralized, Roth (Catalog No. 3175)) and autoclaved at 120° C. for 20 minutes. The solution was cooled to 60° C., and 32.5 g α-D(+)-glucose monohydrate (Roth (Catalog No. 6887)) were added under stirring. 15 ml 10% (w/v) p-hydroxybenzoic acid methylester (Sigma (Catalog No. H3647)) solution dissolved in 70% (v/v) ethanol (Roth (Catalog No. 9065)) and 1.35 ml dimethylsulfoxide (DMSO, Roth (Catalog No. A994)) were then added. Water was then added to this basic solution to a volume of 450 ml, which was then held at a temperature of 60° C. For the control food, 50 ml of a 0.7% (v/v) DMSO solution in water were produced. For the food containing the compounds according to formulas (9) or (25), 0.2 ml of a 25 mM solution of the compounds according to formula (9) or (25) in 100% DMSO were added to 49.8 ml of a 0.3012% DMSO solution in water.
These 50 ml of the control solutions and the solutions containing the compounds according to formula (9) or (25) were each mixed with 450 ml of the basic solution, and were placed in 4 ml amounts in polystyrene containers (height 9.5 cm, diameter 2.4 cm, sealed with cotton wadding) to maintain the flies. After 24 hours, the cooled containers were sealed with cotton wadding and stored at 4° C.
The final concentration of the food components in the control food was 6.5% (w/v) autolysed yeast, 6.5% (w/v) α-D(+)-glucose monohydrate, 2% (w/v) agar, 0.3% (w/v) p-hydroxybenzoic acid methylester, 2.1% ethanol (v/v), 0.34% (v/v) DMSO.
(§1) The final concentration of the food components in the food containing the compound according to formula (9) was 6.5% (w/v) autolysed yeast, 6.5% (w/v) α-D(+)-glucose monohydrate, 2% (w/v) agar, 0.3% (w/v) p-hydroxybenzoic acid methylester, 2.1% ethanol (v/v), 0.34% (v/v) DMSO, 10 μM compound according to formula (9).
as §1, with “(25)” for “(9)”, “(25).” for “(9).”
The larvae were maintained on standard fly food containing 1.1% (w/v) brewer's yeast (“Gewürzmühle Brecht” company), 5.43% (w/v) cornmeal, 0.53% (w/v) filamentous agar (“Gewürzmühle Brecht” company), 6.6% (v/v) sugar beet syrup (Grafschafter), 1.3% (v/v) ethanol (Roth company), 0.13% (w/v) p-hydroxybenzoic acid methylester (Sigma).
24 hours after emergence of the imagines, the adult flies, females and males were separated under a brief CO2 anesthetization lasting less than 2 minutes. During the 24 hours after emergence, the animals were fed using standard fly food. […]

## COc1nc(-c2ccc(C(C)(C)C)cc2)n(-c2ccc(NC(=O)CSc3ccccc3)cc2)n1 [Compound (25)]
[1]
  transcription rate of d4EBP as % of that of the untreated control groups: more than 95%
[2]; control animals and mutants
  change in lifespan: no significant change
[2]; genotype w^1118, female flies
  Average Lifespan: 25.0 (±0.7) Days
[2]; genotype w^1118, step^k08110/step^SH0323 mutants, female flies
  Average Lifespan: 29.3 (±0.7) Days
